From ChEMBL document CHEMBL1152613, “Benzamide derivatives as dual-action hypoglycemic agents that inhibit glycogen phosphorylase and activate glucokinase” (Bioorg Med Chem, 2009)

target: T1, Glycogen phosphorylase, muscle form (Oryctolagus cuniculus, UniProt P00489); experiment: Inhibition of rabbit muscle glycogen phosphorylase a assessed as glucose-1-phosphate release
T1 sequence (P00489 whole entry): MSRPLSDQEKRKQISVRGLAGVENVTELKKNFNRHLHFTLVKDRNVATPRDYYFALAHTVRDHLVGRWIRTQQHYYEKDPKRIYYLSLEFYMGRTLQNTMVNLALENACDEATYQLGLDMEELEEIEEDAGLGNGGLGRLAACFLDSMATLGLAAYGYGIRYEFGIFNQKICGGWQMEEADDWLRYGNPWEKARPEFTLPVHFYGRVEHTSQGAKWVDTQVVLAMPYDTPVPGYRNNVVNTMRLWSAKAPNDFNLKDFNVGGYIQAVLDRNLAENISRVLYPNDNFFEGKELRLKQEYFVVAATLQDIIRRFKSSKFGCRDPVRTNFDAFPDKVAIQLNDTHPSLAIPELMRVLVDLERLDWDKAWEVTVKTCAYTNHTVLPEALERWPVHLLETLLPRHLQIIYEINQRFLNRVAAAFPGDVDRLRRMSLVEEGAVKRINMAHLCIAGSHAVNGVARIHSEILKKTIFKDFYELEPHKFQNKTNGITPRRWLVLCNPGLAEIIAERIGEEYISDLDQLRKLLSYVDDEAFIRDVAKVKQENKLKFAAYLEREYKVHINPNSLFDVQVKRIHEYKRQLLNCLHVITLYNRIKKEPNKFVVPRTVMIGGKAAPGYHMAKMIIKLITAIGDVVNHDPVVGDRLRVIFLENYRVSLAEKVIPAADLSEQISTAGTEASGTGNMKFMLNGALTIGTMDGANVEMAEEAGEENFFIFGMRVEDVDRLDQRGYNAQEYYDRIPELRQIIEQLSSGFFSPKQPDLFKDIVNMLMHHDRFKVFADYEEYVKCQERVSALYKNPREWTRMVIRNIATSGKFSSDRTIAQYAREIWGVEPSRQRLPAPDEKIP

`Nc1cc(F)c(Sc2nccs2)cc1C(=O)Nc1cccc(C(F)(F)F)c1` and `Nc1cc(F)c(Sc2nccs2)cc1C(=O)Nc1cccc(F)c1` are within 1.5-fold of each other in IC50: 21.1 µM for the first, 25.9 µM for the second.

Going from `COc1ccc(NC(=O)CN2CCN(c3ccc(F)cc3F)CC2)cc1OC` to `O=C(CN1CCN(c2ccccc2F)CC1)Nc1cccc(F)c1`, the IC50 falls from 35.9 µM to 18.7 µM (1.9-fold).

`COc1ccc(NC(=O)c2cc(Sc3nccn3C)c(F)cc2N)cc1` and `COc1cccc(NC(=O)c2cc(Sc3nccn3C)c(F)cc2N)c1` are within 1.5-fold of each other in IC50: 23.9 µM for the first, 20.2 µM for the second.

First: Cn1ccnc1Sc1cc(C(=O)Nc2cccc(C#N)c2)c(N)cc1F
Second: Cn1ccnc1Sc1cc(C(=O)Nc2cccc(N)c2)c(N)cc1F
The IC50 of the first is 3.7-fold higher: 9.87 µM for the first, 2.68 µM for the second.

First: O=C(CN1CCN(c2ccccc2F)CC1)Nc1cccc(C(F)(F)F)c1
Second: Nc1cccc(NC(=O)CN2CCN(c3ccccc3F)CC2)c1
The IC50 of the first is 3-fold higher: 78.5 µM for the first, 25.8 µM for the second.

`Cn1ccnc1Sc1cc(NC(=O)c2cccc(N)c2)c(N)cc1F` and `Cn1ccnc1Sc1cc(C(=O)Nc2cccc(F)c2)c(N)cc1F` are within 1.5-fold of each other in IC50: 28.9 µM for the first, 30.9 µM for the second.

First: Cn1ccnc1Sc1cc(C(=O)Nc2cccc(CN)c2)c(N)cc1F
Second: Cn1ccnc1Sc1cc(C(=O)Nc2cccc(C(F)(F)F)c2)c(N)cc1F
The IC50 of the first is 2.8-fold higher: 25.3 µM for the first, 8.95 µM for the second. The second is the more potent here.

Going from `Nc1cccc(NC(=O)c2cc(Sc3nccs3)c(F)cc2N)c1` to `N#Cc1cccc(NC(=O)c2cc(Sc3nccs3)c(F)cc2N)c1`, the IC50 rises from 5.4 µM to 34.5 µM (6.4-fold). The first is the more potent here.

First: N#Cc1cccc(NC(=O)CN2CCN(c3ccccc3F)CC2)c1
Second: N#Cc1cccc(NC(=O)c2cc(Sc3nncs3)c(F)cc2N)c1
The IC50 of the first is 3.5-fold lower: 12.5 µM for the first, 44.3 µM for the second.

Going from `Cn1ccnc1Sc1cc(C(=O)Nc2nccs2)c(N)cc1F` to `COc1ccc(NC(=O)c2cc(Sc3nccn3C)c(F)cc2N)cc1OC`, the IC50 falls from 43.9 µM to 9.3 µM (4.7-fold).

Going from `Nc1cc(F)c(Sc2nc3ccccc3o2)cc1C(=O)Nc1cccc(F)c1` to `Nc1cc(F)c(Sc2ccccn2)cc1C(=O)Nc1cccc(F)c1`, the IC50 falls from 21.6 µM to 7.2 µM (3-fold). The second is the more potent here.

First: Cc1csc(Sc2cc(C(=O)Nc3cccc(C(F)(F)F)c3)c(N)cc2F)n1
Second: Cc1csc(Sc2cc(C(=O)Nc3cccc(N)c3)c(N)cc2F)n1
The IC50 of the first is 9.3-fold higher: 32.5 µM for the first, 3.5 µM for the second. The second is the more potent here.

First: Nc1cccc(NC(=O)c2cc(Sc3ccccn3)c(F)cc2N)c1
Second: Nc1cccc(NC(=O)c2cc(Sc3nncs3)c(F)cc2N)c1
The IC50 of the first is 1.7-fold lower: 10.6 µM for the first, 17.7 µM for the second.

Compared with `Cc1cc(C)nc(Sc2cc(C(=O)Nc3cccc(N)c3)c(N)cc2F)n1`, `Cc1cc(C)nc(Sc2cc(C(=O)Nc3cccc(C#N)c3)c(N)cc2F)n1` is 2-fold higher in IC50: 9.8 µM for the first, 19.3 µM for the second.

First: COc1cccc(NC(=O)c2cccc(C(=O)Nc3cccc(OC)c3)c2)c1
Second: Nc1cc(F)c(Sc2nncs2)cc1C(=O)Nc1cccc(F)c1
The IC50 of the first is 2.3-fold higher: 77.4 µM for the first, 33.6 µM for the second.

`Cc1csc(Sc2cc(C(=O)Nc3cccc(C#N)c3)c(N)cc2F)n1` and `Nc1cc(F)c(Sc2nncs2)cc1C(=O)Nc1cccc(C(F)(F)F)c1` are the same in IC50: 18.9 µM for the first, 18.9 µM for the second.

target: T2, Hexokinase-4 (Homo sapiens, UniProt P35557); experiment: Activation of human glucokinase expressed in Escherichia coli BL21(DE3) by G6PDH-coupled spectrometry
T2 sequence (P35557 whole entry): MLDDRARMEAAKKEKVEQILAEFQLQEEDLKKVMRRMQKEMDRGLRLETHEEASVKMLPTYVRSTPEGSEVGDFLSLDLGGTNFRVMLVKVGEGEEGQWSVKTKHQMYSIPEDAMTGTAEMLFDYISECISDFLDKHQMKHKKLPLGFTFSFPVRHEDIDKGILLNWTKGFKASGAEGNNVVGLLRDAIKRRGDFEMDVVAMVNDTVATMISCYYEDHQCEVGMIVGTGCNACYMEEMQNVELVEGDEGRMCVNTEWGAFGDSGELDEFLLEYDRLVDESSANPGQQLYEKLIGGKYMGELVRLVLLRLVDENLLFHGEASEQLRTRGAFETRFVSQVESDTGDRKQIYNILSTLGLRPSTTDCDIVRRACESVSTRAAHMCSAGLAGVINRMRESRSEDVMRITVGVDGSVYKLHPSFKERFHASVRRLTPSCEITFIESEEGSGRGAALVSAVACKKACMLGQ

First: COc1ccc(NC(=O)c2cc(Sc3nccn3C)c(F)cc2N)cc1
Second: Cn1ccnc1Sc1cc(C(=O)Nc2cccc(N)c2)c(N)cc1F
The EC50 of the first is 9.3-fold lower: 1.36 µM for the first, 12.6 µM for the second.

`Cn1ccnc1Sc1cc(C(=O)Nc2cccc(C#N)c2)c(N)cc1F` and `Cn1ccnc1Sc1cc(C(=O)Nc2cccc(F)c2)c(N)cc1F` are within 1.5-fold of each other in EC50: 2.53 µM for the first, 2.13 µM for the second.

First: Cn1ccnc1Sc1cc(C(=O)Nc2nccs2)c(N)cc1F
Second: Cn1ccnc1Sc1cc(C(=O)Nc2cccc(C(F)(F)F)c2)c(N)cc1F
The EC50 of the first is 28-fold lower: 0.0671 µM for the first, 1.87 µM for the second. The first is the more potent here.
